For one assay, the target named is T1, PRMT5/MEP50 (Homo sapiens, UniProt O14744).
T1 construct: Full-length human PRMT5 (NP_006100)
In words: PRMT5/MEP50 enzyme assay on peptide substrates (3H-SAM Flashplate). It counts as biochemical. To be noted: PRMT5/MEP50 10 nM, H4 1-15aa peptide 100 nM, 3H-SAM 1 μM. The source says:
General materials like S-adenocylmethionine (SAM), S-adenosylhomocysteine (SAH), Tris-HCl, DTT, […] (BSA) and Tween-20 were purchased from Sigma-Aldrich. 3H-SAM and 384-well streptavidin Flashplates were purchased from Perkin Elmer. Substrates that were used were Peptide representative of human Histone 4 residues 1-15 which was purchased from Rockland antibodies and assays.
PRMT5/MEP50 Enzyme assay on Peptide Substrates.
The assays were all performed in a buffer consisting of 50 mMTris-HCl, pH 8, 1 mM DTT, 0.01% BSA, 0.01% Tween-20, prepared on the day of use. Test compounds were diluted 3-fold in assay buffer (final DMSO concentration of 1%) and added into a 384-well OptiPlate (PerkinElmer, #6007290). A cocktail (10 μL) of PRMT5/MEP50 enzyme and the peptide was added to the wells. The compounds were allowed to incubate with PRMT5/MEP50 for 30 min at room temperature, then 5 μL of ^3H-SAM was added to initiate the reaction. The final concentrations of the components were as follows: PRMT5/MEP50-10 nM, H4, 1-15aa peptide-100 nM, ^3H-SAM-1 μM. The assays were stopped by the addition of 1 mM SAH. 25 μL of the reaction from the 384-well OptiPlate was then transferred to a 384-well Flashplate and the biotinylated peptides were allowed to bind to the streptavidin surface for at least 1 h, before being washed twice with 50 mMTris-HCl, pH 8, 0.1% Tween-20. The plates were then read in a PerkinElmer Topcount plate reader to measure the quantity of ^3H-labeled peptide bound to the Flashplate surface measured as disintegrations per minute (dpm), also referred to as counts per minute (cpm).
The IC50 values were calculated using a 4-parameter variable slope fit algorithm (cpm—counts per minute, cmpd—signal in assay well, and cpmmax and cpmmin mare the respective minimum and maximum signal controls).

A further assay concerns Z-138 cells. In words: Z-138 long term proliferation assay (Cell Titer Glo). It counts as cell-based. The conditions noted are these: Homo sapiens, 192 h; Z-138 cells, cell viability, day 8; read-out: PRMT5 Z138 GI50 Day 8 μM. How it is done: A compound source plate was prepared by performing ten-point 3-fold dilution in DMSO, such that the final top concentration of the compound was 10 μM, and DMSO was 0.3%. The total volume of compounds added was 20 μL. The cells were incubated for 96 h at 37° C., 5% CO2. […] The cells were re-treated with the compounds and incubated for an additional four days. Cell viability was measured on both day 4 and day 8, by adding 25 μL of Cell Titer Glo reagent to an equal volume of cell suspension. Luminescence was read on a PerkinElmer Victor3 multiplate reader. The concentration of compound inhibiting cell viability by 50% was determined using a 4-parameter, variable slope fit of the normalized dose response curves.

T1 sequence (O14744 whole entry): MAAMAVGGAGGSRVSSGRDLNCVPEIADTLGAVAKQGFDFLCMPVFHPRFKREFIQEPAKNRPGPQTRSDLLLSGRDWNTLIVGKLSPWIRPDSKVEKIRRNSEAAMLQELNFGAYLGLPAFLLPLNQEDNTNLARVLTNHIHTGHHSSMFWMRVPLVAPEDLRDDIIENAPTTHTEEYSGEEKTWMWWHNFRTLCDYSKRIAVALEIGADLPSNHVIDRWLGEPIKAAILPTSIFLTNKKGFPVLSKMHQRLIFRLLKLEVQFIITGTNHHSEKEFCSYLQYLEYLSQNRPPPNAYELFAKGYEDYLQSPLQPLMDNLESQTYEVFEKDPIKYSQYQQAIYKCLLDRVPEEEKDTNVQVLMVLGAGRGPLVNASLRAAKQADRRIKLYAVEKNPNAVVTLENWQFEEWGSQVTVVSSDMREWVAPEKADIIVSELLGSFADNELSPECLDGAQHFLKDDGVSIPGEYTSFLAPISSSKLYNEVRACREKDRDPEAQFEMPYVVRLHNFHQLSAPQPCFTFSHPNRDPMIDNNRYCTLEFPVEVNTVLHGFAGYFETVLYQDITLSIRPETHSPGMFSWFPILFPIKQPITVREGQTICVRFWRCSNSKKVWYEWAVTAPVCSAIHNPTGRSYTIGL
T1 sequence (Q9BQA1 whole entry partner): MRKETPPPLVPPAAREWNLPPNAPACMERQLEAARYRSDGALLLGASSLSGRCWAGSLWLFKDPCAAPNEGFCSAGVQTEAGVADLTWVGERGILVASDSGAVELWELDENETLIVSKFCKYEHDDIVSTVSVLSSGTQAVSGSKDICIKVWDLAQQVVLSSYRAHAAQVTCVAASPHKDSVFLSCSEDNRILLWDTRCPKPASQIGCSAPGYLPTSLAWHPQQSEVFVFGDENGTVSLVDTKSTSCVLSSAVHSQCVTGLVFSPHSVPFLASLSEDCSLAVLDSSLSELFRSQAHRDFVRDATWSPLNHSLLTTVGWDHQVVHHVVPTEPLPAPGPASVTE

For orientation: IC50 means the concentration at which inhibition is half-maximal. Read a low IC50 as higher potency. Usually GI50 stands for the concentration at which growth is held to half of that of the control. On PRMT5/MEP50, `Cn1ccc(-c2cn3cc(C(=O)NC[C@H](O)CN4CCc5cc(F)ccc5C4)nc3cn2)cc1=O` [Example 85, (S)—N-(3-(6-fluoro-3,4-dihydroisoquinolin-2(1H)-yl)-2-hydroxypropyl)-6-(1-methyl-2-oxo-1,2-dihydropyridin-4-yl)imidazo[1,2-a]pyrazine-2-carboxamide] yielded an IC50 of 1 to 5 µM. For the same molecule, in the assay on Z-138 cells, the GI50 lay in the range of 1 to 5 µM.

As to `O=C(NC[C@H](O)CN1CCc2ccccc2C1)c1cn2cc(C3CCOCC3)ccc2n1` [Example 26, (S)—N-(3-(3,4-dihydroisoquinolin-2(1H)-yl)-2-hydroxypropyl)-6-(tetrahydro-2H-pyran-4-yl)imidazo[1,2-a]pyridine-2-carboxamide], the IC50 against PRMT5/MEP50 lay within 0.01 to 1 µM. Moreover, the GI50 in the assay on Z-138 cells lay in the range of 0.01 to 1 µM.

As for `O=C(NC[C@H](O)[C@@H](O)CN1CCc2ccccc2C1)c1cn2cc(C(F)(F)F)ccc2n1` [Example 76, N-((2S,3S)-4-(3,4-dihydroisoquinolin-2(1H)-yl)-2,3-dihydroxybutyl)-6-(trifluoromethyl)imidazo[1,2-a]pyridine-2-carboxamide], the half-inhibitory concentration (IC50) at PRMT5/MEP50 fell in the range of 0.01 to 1 µM. Further, in the assay on Z-138 cells, the GI50 was 0.01 to 1 µM.

`O=C(NC[C@H](O)[C@@H](O)CN1CCc2ccccc2C1)c1cn2c(n1)CCC(C(F)(F)F)C2` (stereo partly drawn) [Example 117, N-((2S,3S)-4-(3,4-dihydroisoquinolin-2(1H)-yl)-2,3-dihydroxybutyl)-6-(trifluoromethyl)-5,6,7,8-tetrahydroimidazo[1,2-a]pyridine-2-carboxamide] registered an IC50 against PRMT5/MEP50 of 0.01 to 1 µM. Further, the GI50 in the assay with Z-138 cells was 0.01 to 1 µM.

`Cc1ccc(-c2ccc3nc(C(=O)NC[C@H](O)CN4CCc5ccccc5C4)cn3c2)cn1` [Example 29, (S)—N-(3-(3,4-dihydroisoquinolin-2(1H)-yl)-2-hydroxypropyl)-6-(6-methylpyridin-3-yl)imidazo[1,2-a]pyridine-2-carboxamide] yielded an IC50 against PRMT5/MEP50 of 0.01 to 1 µM. Besides, the GI50 in the assay on Z-138 cells lay in the range of 0.01 to 1 µM.

On to `Cc1ccc(-c2ccc3nc(C(=O)NC[C@H](O)CN4CCc5ccccc5C4)cn3c2)nn1` [Example 30, (S)—N-(3-(3,4-dihydroisoquinolin-2(1H)-yl)-2-hydroxypropyl)-6-(6-methylpyridazin-3-yl)imidazo[1,2-a]pyridine-2-carboxamide], for which the concentration for half-maximal inhibition (IC50) on PRMT5/MEP50 fell in the range of 0.01 to 1 µM. Besides, the GI50 in the assay on Z-138 cells lay in the range of 0.01 to 1 µM.

For the molecule `Cn1cc(-c2ccc3nc(C(=O)NC[C@H](O)CN4CCc5ccccc5C4)cn3n2)cn1` [Example 46, (S)—N-(3-(3,4-dihydroisoquinolin-2(1H)-yl)-2-hydroxypropyl)-6-(1-methyl-1H-pyrazol-4-yl)imidazo[1,2-b]pyridazine-2-carboxamide], at PRMT5/MEP50, the IC50 is 0.01 to 1 µM. The GI50 in the assay on Z-138 cells is 0.01 to 1 µM.

For `Cc1ncc(-c2ccc3nc(C(=O)NC[C@H](O)CN4CCc5ccccc5C4)cn3c2)s1` [Example 31, (S)—N-(3-(3,4-dihydroisoquinolin-2(1H)-yl)-2-hydroxypropyl)-6-(2-methylthiazol-5-yl)imidazo[1,2-a]pyridine-2-carboxamide], on PRMT5/MEP50, the IC50 lay in the range of 0.01 to 1 µM. Further, the GI50 in the assay with Z-138 cells lay in the range of 0.01 to 1 µM.

`O=C(NC[C@H](O)CN1CCc2ccccc2C1)c1cn2cc(N3CC(F)(F)C3)ccc2n1` [Example 59, (S)-6-(3,3-difluoroazetidin-1-yl)-N-(3-(3,4-dihydroisoquinolin-2(1H)-yl)-2-hydroxypropyl)imidazo[1,2-a]pyridine-2-carboxamide]: on PRMT5/MEP50, the concentration for half-maximal inhibition (IC50) fell in the range of 1 to 5 µM. The 50% growth inhibitory concentration (GI50) in the assay with Z-138 cells was in the range of 1 to 5 µM.

As for `Cn1cc(-c2cn3cc(C(=O)NC[C@H](O)CN4CCc5ccccc5C4)nc3cn2)ccc1=O` [Example 51, (S)—N-(3-(3,4-dihydroisoquinolin-2(1H)-yl)-2-hydroxypropyl)-6-(1-methyl-6-oxo-1,6-dihydropyridin-3-yl)imidazo[1,2-a]pyrazine-2-carboxamide], the IC50 against PRMT5/MEP50 was 0.01 to 1 µM. For the same molecule, the GI50 in the assay with Z-138 cells was in the range of 0.01 to 1 µM.

In turn, `O=C(NC[C@H](O)CN1CCc2cc(F)ccc2C1)c1cn2cc(C(F)(F)F)ncc2n1` [Example 84, (S)—N-(3-(6-fluoro-3,4-dihydroisoquinolin-2(1H)-yl)-2-hydroxypropyl)-6-(trifluoromethyl)imidazo[1,2-a]pyrazine-2-carboxamide] came in with an IC50 on PRMT5/MEP50 of 1 to 5 µM. Also, the GI50 in the assay on Z-138 cells fell in the range of 1 to 5 µM.

On PRMT5/MEP50, `CC(C)c1nc(-c2ccc3nc(C(=O)NC[C@H](O)CN4CCc5ccccc5C4)cn3c2)no1` [Example 24, (S)—N-(3-(3,4-dihydroisoquinolin-2(1H)-yl)-2-hydroxypropyl)-6-(5-isopropyl-1,2,4-oxadiazol-3-yl)imidazo[1,2-a]pyridine-2-carboxamide] displayed an IC50 of 0.01 to 1 µM. For the same molecule, the GI50 with Z-138 cells is 0.01 to 1 µM.

With `Cn1cc(-c2ccc3nc(C(=O)NC[C@H](O)[C@@H](O)CN4CCc5ccccc5C4)cn3c2)cn1` [Example 81, N-((2S,3S)-4-(3,4-dihydroisoquinolin-2(1H)-yl)-2,3-dihydroxybutyl)-6-(1-methyl-1H-pyrazol-4-yl)imidazo[1,2-a]pyridine-2-carboxamide], the IC50 against PRMT5/MEP50 fell in the range of 0.01 to 1 µM. In the assay with Z-138 cells, the concentration for 50% growth inhibition (GI50) is 0.01 to 1 µM.

For `CN(C[C@H](O)CN1CCc2ccccc2C1)C(=O)c1cc2nc(C(F)(F)F)ccn2n1` [Example 90, (R)—N-(3-(3,4-dihydroisoquinolin-2(1H)-yl)-2-hydroxypropyl)-N-methyl-5-(trifluoromethyl)pyrazolo[1,5-a]pyrimidine-2-carboxamide], the IC50 against PRMT5/MEP50 lay within 1 to 5 µM. The GI50 in the assay with Z-138 cells was > 5 µM.

`CN(C[C@H](O)CN1CCc2ccccc2C1)C(=O)c1cn2cc(C(F)(F)F)ncc2n1` [Example 89, (R)—N-(3-(3,4-dihydroisoquinolin-2(1H)-yl)-2-hydroxypropyl)-N-methyl-6-(trifluoromethyl)imidazo[1,2-a]pyrazine-2-carboxamide] showed an IC50 on PRMT5/MEP50 of 0.01 to 1 µM. In addition, in the assay on Z-138 cells, the GI50 was 0.01 to 1 µM.

With `O=C(NC[C@H](O)CN1CCc2ccccc2C1)c1cn2nc(C(F)(F)F)ccc2n1` [Example 50, (S)—N-(3-(3,4-dihydroisoquinolin-2(1H)-yl)-2-hydroxypropyl)-6-(trifluoromethyl)imidazo[1,2-b]pyridazine-2-carboxamide], on PRMT5/MEP50, the IC50 is 1 to 5 µM. Moreover, the GI50 in the assay with Z-138 cells lay in the range of 1 to 5 µM.

In the case of `CN(C[C@H](O)CN1CCc2ccccc2C1)C(=O)c1cn2cc(C(F)(F)F)ccc2n1` [Example 88, (R)—N-(3-(3,4-dihydroisoquinolin-2(1H)-yl)-2-hydroxypropyl)-N-methyl-6-(trifluoromethyl)imidazo[1,2-a]pyridine-2-carboxamide], the IC50 against PRMT5/MEP50 fell in the range of 0.01 to 1 µM. Besides, the GI50 in the assay with Z-138 cells fell in the range of 0.01 to 1 µM.

For the molecule `CN(C[C@H](O)CN1CCc2ccccc2C1)C(=O)c1cn2cc(-c3ccc(C#N)cc3)ncc2n1` [Example 95, (R)-6-(4-cyanophenyl)-N-(3-(3,4-dihydroisoquinolin-2(1H)-yl)-2-hydroxypropyl)-N-methylimidazo[1,2-a]pyrazine-2-carboxamide], the concentration for half-maximal inhibition (IC50) at PRMT5/MEP50 fell in the range of 0.01 to 1 µM. Moreover, the concentration for 50% growth inhibition (GI50) with Z-138 cells fell in the range of 0.01 to 1 µM.

In the case of `O=C(NCC(O)CN1CCc2ccccc2C1)c1cn2c(n1)CCCC2` (centres unmarked) [Example 101, N-(3-(3,4-dihydroisoquinolin-2(1H)-yl)-2-hydroxypropyl)-5,6,7,8-tetrahydroimidazo[1,2-a]pyridine-2-carboxamide], the IC50 on PRMT5/MEP50 lay within 1 to 5 µM. Also, in the assay with Z-138 cells, the GI50 is > 5 µM.
